# Counter-ions that a name gives are not always drawn.
# Columns and labels:
# [1] = Antiproliferative activity against human IMC cells assessed as inhibition of cell proliferation incubated for 48 hrs by Coulter counter method; assay type: functional, cell-based
# L1210 = test: Antiproliferative activity against mouse L1210 cells assessed as inhibition of cell proliferation incubated for 48 hrs by Coulter counter method; assay type: functional, cell-based; details: L1210, 48 h
# HCT-116 [2] = test: Cytotoxicity against human HCT-116 cells assessed as cell growth inhibition by MTT assay; assay type: functional, cell-based
# Candida albicans = test: Antifungal activity against Candida albicans assessed as fungal growth inhibition by microbroth dilution method; assay type: functional
# SW-620 = test: Antitumor activity against human SW620 cells xenografted in BALB/c nude mouse assessed as tumor growth inhibition at 10 mg/kg/day, ip for 28 days relative to control; assay type: functional; details: SW-620, 672 h, time 28 day, read-out: TGI
# [3] = system: Mycolicibacterium smegmatis; test: Antibiofilm activity against Mycobacterium smegmatis assessed as inhibition of biofilm formation incubated for 4 days; assay type: functional; details: 96 h, time 4 day
# NCI-H1395 = test: Cytotoxicity against human NCI-H1395 cells assessed as cell growth inhibition incubated for 96 hrs by Cell Titer Glo assay; assay type: functional, cell-based; details: NCI-H1395, 96 h
# HCC1395 = test: Cytotoxicity against human HCC1395 cells assessed as cell growth inhibition incubated for 96 hrs by Cell Titer Glo assay; assay type: functional, cell-based; details: HCC1395, 96 h
# NSCLC = test: Cytotoxicity against human NSCLC cells assessed as cell growth inhibition incubated for 96 hrs by Cell Titer Glo assay; assay type: functional, cell-based
# HepG2 = test: Cytotoxicity against human HepG2 cells assessed as cell growth inhibition incubated for 72 hrs by SRB assay; assay type: functional, cell-based; details: HepG2, 72 h
# MCF7 [4] = test: Cytotoxicity against human MCF7 cells assessed as cell growth inhibition incubated for 72 hrs by SRB assay; assay type: functional, cell-based; details: MCF7, 72 h
# SF-268 = test: Cytotoxicity against human SF-268 cells assessed as cell growth inhibition incubated for 72 hrs by SRB assay; assay type: functional, cell-based; details: SF-268, 72 h
# A549 [5] = test: Cytotoxicity against human A549 cells assessed as cell growth inhibition incubated for 72 hrs by SRB assay; assay type: functional, cell-based; details: A549, 72 h
# [6] = biological target: Tyrosine-protein phosphatase non-receptor type 1 (Homo sapiens, UniProt P18031); test: Inhibition of recombinant human PTP1B expressed in Escherichia coli using p-nitrophenyl phosphate as substrate preincubated for 15 mins followed by substrate addition measured after 60 mins by absorbance based assay
# Chain of Tyrosine-protein phosphatase non-receptor type 1 (P18031 whole entry): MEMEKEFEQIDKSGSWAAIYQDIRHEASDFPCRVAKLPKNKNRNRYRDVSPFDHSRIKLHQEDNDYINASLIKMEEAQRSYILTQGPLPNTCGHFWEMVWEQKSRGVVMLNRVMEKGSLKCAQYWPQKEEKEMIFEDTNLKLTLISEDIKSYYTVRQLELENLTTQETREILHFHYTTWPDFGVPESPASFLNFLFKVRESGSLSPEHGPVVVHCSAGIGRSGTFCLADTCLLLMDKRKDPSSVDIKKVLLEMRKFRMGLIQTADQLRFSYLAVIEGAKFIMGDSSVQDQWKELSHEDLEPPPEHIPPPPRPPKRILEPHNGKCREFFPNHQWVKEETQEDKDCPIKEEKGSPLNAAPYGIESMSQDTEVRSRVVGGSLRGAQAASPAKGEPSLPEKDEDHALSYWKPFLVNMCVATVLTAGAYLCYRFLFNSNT
# [7] = biological target: Tyrosine-protein phosphatase non-receptor type 2 (Homo sapiens, UniProt P17706); test: Inhibition of recombinant human TCPTP expressed in Escherichia coli using p-nitrophenyl phosphate as substrate preincubated for 15 mins followed by substrate addition measured after 60 mins by absorbance based assay
# Chain of Tyrosine-protein phosphatase non-receptor type 2 (P17706 whole entry): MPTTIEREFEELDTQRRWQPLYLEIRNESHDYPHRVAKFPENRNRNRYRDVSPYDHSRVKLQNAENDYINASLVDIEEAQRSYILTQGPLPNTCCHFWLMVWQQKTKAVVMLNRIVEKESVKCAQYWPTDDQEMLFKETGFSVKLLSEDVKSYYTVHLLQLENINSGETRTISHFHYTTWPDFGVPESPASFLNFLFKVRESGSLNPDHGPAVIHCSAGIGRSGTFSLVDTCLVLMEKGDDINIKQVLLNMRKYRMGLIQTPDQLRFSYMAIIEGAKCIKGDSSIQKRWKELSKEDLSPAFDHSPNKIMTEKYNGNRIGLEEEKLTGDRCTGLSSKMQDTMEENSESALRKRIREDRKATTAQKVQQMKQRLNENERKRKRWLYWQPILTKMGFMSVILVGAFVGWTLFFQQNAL
# MDA-MB-435 = test: Antiproliferative activity against human MDA-MB-435 cells assessed as inhibition of cell proliferation incubated for 24 hrs by MTT assay; assay type: functional, cell-based; details: MDA-MB-435, 24 h
# Androgen receptor = Androgen receptor (Homo sapiens, UniProt P10275); test: Displacement of [3H]-DHT from recombinant androgen receptor (unknown origin) incubated for 3 hrs by liquid scintillation counter method
# Chain of Androgen receptor (P10275 whole entry): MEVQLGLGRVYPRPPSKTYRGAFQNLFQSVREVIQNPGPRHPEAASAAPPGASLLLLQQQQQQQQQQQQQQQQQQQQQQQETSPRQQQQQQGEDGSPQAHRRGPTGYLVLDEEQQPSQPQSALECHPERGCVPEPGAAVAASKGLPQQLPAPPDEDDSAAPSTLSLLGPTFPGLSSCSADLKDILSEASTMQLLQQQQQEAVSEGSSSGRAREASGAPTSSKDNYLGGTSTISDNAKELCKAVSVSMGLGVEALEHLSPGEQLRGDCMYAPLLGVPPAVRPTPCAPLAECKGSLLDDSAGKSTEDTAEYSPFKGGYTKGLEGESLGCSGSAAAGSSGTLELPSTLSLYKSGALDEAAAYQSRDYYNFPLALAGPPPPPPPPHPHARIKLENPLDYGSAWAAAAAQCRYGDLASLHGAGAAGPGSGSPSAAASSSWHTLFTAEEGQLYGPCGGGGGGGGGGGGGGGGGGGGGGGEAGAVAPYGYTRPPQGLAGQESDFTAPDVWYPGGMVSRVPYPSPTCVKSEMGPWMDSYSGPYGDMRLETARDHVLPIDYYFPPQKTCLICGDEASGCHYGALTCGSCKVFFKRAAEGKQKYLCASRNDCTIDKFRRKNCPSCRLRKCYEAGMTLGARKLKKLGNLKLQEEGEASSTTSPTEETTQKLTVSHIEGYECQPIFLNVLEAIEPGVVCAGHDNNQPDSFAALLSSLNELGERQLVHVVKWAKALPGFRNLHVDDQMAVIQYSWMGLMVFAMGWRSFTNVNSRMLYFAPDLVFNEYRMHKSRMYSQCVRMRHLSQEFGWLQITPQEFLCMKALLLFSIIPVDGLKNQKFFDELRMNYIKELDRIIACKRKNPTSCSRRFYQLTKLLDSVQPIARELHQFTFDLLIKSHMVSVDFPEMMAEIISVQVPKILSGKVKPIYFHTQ
# [8] = Cytotoxicity against human H7402 cells assessed as cell growth inhibition incubated for 24 hrs by MTT assay; assay type: functional, cell-based; details: H7402, 24 h
# HCT-116 [9] = test: Cytotoxicity against human HCT-116 cells assessed as lethal dose; assay type: functional; details: read-out: LD50 (the source's name)
# RAW264.7 = test: Inhibition of NO production in LPS-stimulated mouse RAW264.7 cells at 10 uM relative to control; assay type: functional
# [10] = system: Panel NCI-60 (60 carcinoma cell lines); test: Cytotoxicity against human Panel NCI-60 (60 carcinoma cell lines) cells assessed as cell growth inhibition; assay type: functional, cell-based
# [11] = Cytotoxicity against human BJ cells assessed as cell growth inhibition incubated for 72 hrs by Cell Titer Glo assay relative to control; assay type: toxicity, cell-based
# HCT-116 [12] = test: Cytotoxicity against human HCT-116 cells assessed as cell growth inhibition incubated for 72 hrs by Cell Titer Glo assay; assay type: functional, cell-based; details: HCT-116, 72 h
# A549 [13] = test: Cytotoxicity against human A549 cells assessed as cell growth inhibition; assay type: functional, cell-based
# HL-60 = test: Cytotoxicity against human HL-60 cells assessed as cell growth inhibition; assay type: functional, cell-based
# [14] = Cytotoxicity against human HTB26 cells assessed as cell growth inhibition by Alamar blue staining based fluorescence assay; assay type: functional
# MCF7 [15] = test: Cytotoxicity against human MCF7 cells assessed as cell growth inhibition by Alamar blue staining based fluorescence assay; assay type: functional
# [16] = Cytotoxicity against African green monkey cells assessed as cell growth inhibition by Alamar blue staining based fluorescence assay; assay type: toxicity; details: African green monkey (Chlorocebus sabaeus), Vero cells
# HCT-116 [17] = test: Cytotoxicity against human HCT-116 cells assessed as cell growth inhibition by Alamar blue staining based fluorescence assay; assay type: functional
# T-cell = test: Cytotoxicity against mouse spleen T-cells assessed as cell growth inhibition; assay type: functional, cell-based
# Macrophage = test: Cytotoxicity against mouse spleen macrophage assessed as cell growth inhibition; assay type: functional, cell-based
# MCF7 [18] = test: Antitumor activity against Adriamycin-resistant human MCF7 cells xenografted in athymic nude BALB/c mouse assessed as tumor growth inhibition at 5 mg/kg, iv measured every 4 days for 40 days by caliper method relative to control; assay type: functional; details: MCF7, 960 h, time 40 day, read-out: TGI
structure (smiles),measurement,setting,value
CN1C=C(C(N)=O)[C@@H]2C[C@H](O)[C@@](NC(=O)CS(N)(=O)=O)(C(=O)O)[C@@H]2C1,IC50,[1],0.82 µM
same,IC50,L1210,0.84 µM
CC1=C(Cn2c3ccc(Br)c(=O)c-3nc3ccccc32)CCC(C)(C)C1,IC50,HCT-116 [2],0.049 µM
same,MIC,Candida albicans,0.95 µM
C=C1C(=O)C=C2C=C3[C@@H](O)C(C)(C)C[C@@]3(O)[C@]12C,inhibition in vivo at 10 mg/kg/day,SW-620,50%
CC(C)=C/C=C\[C@H](C)[C@H]1CC[C@]2(C)C[C@@H]3C(C)=CC(=O)[C@@H]3/C(C=O)=C\C[C@@H]12,MIC,[3],6.23 µg/mL
COc1cc2nc(C(=O)NCC(=O)O)sc2c(C/C=C(\C)CC/C=C(\C)CC/C=C(\C)CCC/C(C)=C\CC(=O)O)c1O,IC50,NCI-H1395,2.5 µM
same,IC50,HCC1395,6.8 µM
same,IC50,NSCLC,1.5 µM
C=C(C)[C@H]1CC=C(C)[C@H]2C[C@H]3Cc4c(C)cc(O)cc4O[C@@]3(C)C[C@H]12,IC50,HepG2,20 µM
same,IC50,MCF7 [4],20 µM
same,IC50,SF-268,20 µM
same,IC50,A549 [5],20 µM
CC1=CC[C@H](C(C)(C)O)[C@H]2C[C@]3(C)Oc4cc(O)cc(C)c4C[C@@H]3C[C@H]12,IC50,HepG2,20 µM
same,IC50,MCF7 [4],20 µM
same,IC50,SF-268,20 µM
same,IC50,A549 [5],20 µM
CC1(C)Oc2c(nc3c4c2C(=O)CC[C@]4(C)[C@@]2(C)c4[nH]c5ccccc5c4C[C@@H]2C3)[C@H]1O,IC50,[6],1.7 µM
same,IC50,[7],1.7 µM
CC(C)(O)[C@H]1OC2CC[C@@]3(C)[C@@](O)(CC[C@H]4C[C@]5(OCNc6ccccc65)C(=O)[C@@]43C)C2=CC1=O (stereo partly drawn),IC50,[6],1.7 µM
same,IC50,[7],1.7 µM
COC(=O)N[C@H]1[C@@H](C)O[C@@H](O[C@H]2C/C=C(\C)[C@]3(C)CC[C@@H]4[C@@H](O[C@H]5C[C@@H](O[C@H]6C[C@@H](O)[C@@H](O[C@@H]7C[C@@H](O)[C@@H](OC)[C@H](C)O7)[C@H](C)O6)C[C@H](C)O5)[C@@H](C)C[C@H](C)[C@H]4[C@]3(C)C(=O)C3C(=O)OC4(C[C@@H](C)C(CO)=C[C@H]4/C=C/2C)C3=O)C[C@]1(C)N (stereo partly drawn),IC50,MDA-MB-435,7.5 µM
C=C[C@@]1(C)CC[C@H]2C(C=C[C@H]3[C@H](CO)CC(=O)C[C@]23C)C1 (stereo partly drawn),IC50,Androgen receptor,9.71 µM
COC(=O)N[C@H]1[C@@H](C)O[C@@H](O[C@H]2C/C=C(\C)[C@]3(C)CC[C@@H]4[C@@H](O[C@H]5C[C@@H](O[C@H]6C[C@@H](O)[C@@H](O[C@@H]7C[C@@H](O)[C@@H](OC)[C@H](C)O7)[C@H](C)O6)C[C@H](C)O5)[C@@H](C)C[C@H](C)[C@H]4[C@]3(C)C(=O)C3C(=O)OC4(C[C@@H](C)C(CO)=C[C@H]4/C=C/2C)C3=O)C[C@]1(C)[N+](=O)[O-] (stereo partly drawn),IC50,[8],0.6 µM
COc1cc(OC)c2c(c1)[C@H]([C@H](O)/C=C(\C)CC[C@@H]1C(C)=CC[C@@H]3C(C)(C)CCC[C@@]13C)CCC2=O,CC50,HCT-116 [9],2 µg/mL
CC1=CC(=O)C[C@@]2(C)CC[C@@H](C(C)CO)C[C@H]12 (stereo partly drawn),inhibition at 10 µM,RAW264.7,22.5%
CC1=CCC[C@@H](C)[C@]1(C)CC[C@@]1(C)c2c(O)cc3c(c2O[C@@H]1C)C(=O)C(C)=C(O)C3=O,IC50,[10],10 µM
CC1(C)CCC[C@]2(C)[C@H]3Cc4c(c(O)c(O)c5nc(C(=O)O)ccc45)O[C@]3(C)CC[C@@H]12,inhibition at 72 h,[11],43%
same,IC50,HCT-116 [12],10 µM
CC1(C)CCC[C@@](C)(c2ccc(CO)cc2O)O1,IC50,A549 [13],> 50 µg/mL
same,IC50,HL-60,> 50 µg/mL
C=C(C)C1C[C@H](O)C2(C)CCCC3C2C1CC(C)C3(C)CC/C(C)=C/[C@@H](O)[C@@H]1CCC(=O)c2c(OC)cc(OC)cc21 (stereo partly drawn),IC50,[14],10.1 µM
same,IC50,MCF7 [15],7.8 µM
same,IC50,[16],23.7 µM
same,IC50,HCT-116 [17],11.9 µM
CC(=O)c1nncc2c1C(=O)C1=C(OC(C)(C)[C@H](Cl)C1=O)[C@]2(O)C[C@H]1C(C)(C)[C@@H](Cl)CC[C@]1(C)O,IC50,T-cell,40 µM
same,IC50,Macrophage,40 µM
COc1cccc2c1C(=O)c1c(O)c3c(c(O)c1C2=O)C[C@@](O)(C(=O)CO)C[C@@H]3O[C@H]1C[C@H](N)[C@H](O)[C@H](C)O1 [DOXORUBICIN HYDROCHLORIDE],inhibition in vivo at 5 mg/kg,MCF7 [18],46%

# From ChEMBL document CHEMBL5104094, “Chemistry, biosynthesis and biological activity of terpenoids and meroterpenoids in bacteria and fungi isolated from different marine habitats” (Eur J Med Chem, 2021)
